Data taken from patent publication US4497806A, “Triorganotin compounds, antifungal and antibacterial compositions containing same, and method of using same” (priority 1983, dated 1985).

Columns and labels:
Staphylococcus aureus = experiment: Antibacterial activity, agar growth inhibition; type: cell-based; parameters: key to growth inhibition: -: no inhibition of growth; +: partial inhibition; 2+: complete inhibition; conditions: Gram-positive
Method: The antibacterial activity of Compounds A-E was investigated by means of incorporating the compounds into sterile tryptic soy agar (Difco) at levels of 100, 10, and 1 μg/ml. The agar was also […] with a 1:100 dilution of an 18-hour old culture of the desired bacterial species in sterile distilled water. The plates were incubated for 24 hours at 37° C. with each bacterial strain. Observations of bacterial growth inhibition were made following the appropriate incubation period.
(§1) A solvent control was included in all evaluations, as were growth controls for all bacteria species.
Comparative compounds 1-5 above were employed for comparison purposes. These compounds were tested for antibacterial activity in the same manner as the triorganotin 5-nitro-2-furoates of the present invention.
(§2) All of the bacteria tested were obtained from the culture collection of the Department of Biological Sciences, St. John's University.
The ability of Compound B to inhibit the growth of other Gram-positive bacteria, using the same test procedures as described for the antibacterial activity determined in Table III above, is illustrated in Table IV below.

[1] = test system: Myrothecium verrucaria (ATCC 9095); experiment: Antifungal activity, agar plate growth inhibition; type: cell-based; conditions: 14 days
Method: (§3) Dilutions of the sterile solutions were prepared and added to liquified potato dextrose agar (Difco) to yield final concentrations of 100, 10 and 1 μg/ml. The agar, containing the appropriate organotin compound, was poured into sterile petri dishes and allowed to solidify over night. The agar surface was inoculated centrally with a 2 mm^2 portion of the growth from a ten-day-old culture of each fungus of the group consisting of Aspergillus niger, Chaetomium globosum, Cladosporium carpophilum, Fusarium moniliforme, Myrotheium verrucaria, Penicillium notatum, Rhizopus stolonifer, Trichoderma viride and Trichophyton mentagrophytes, or from a two-day-old culture of Saccharomyces cerevisiae. Inoculated plates were incubated for 14 days and observations of growth inhibition were made by measuring the diameters of the colonies present on the agar surface.
(§4) A solvent was included in all evaluations, as were growth controls for all fungal species.
(§5) The following compounds were tested for comparative purposes: [drawing 6] These compounds were tested for antifungal activity in the same manner as the triorganotin 5-nitro-2-furoates of the present invention.

[2] = test system: Rhizopus stolonifer (ATCC 10404); experiment: Antifungal activity, agar plate growth inhibition; type: cell-based; conditions: 14 days
Method: as §3, §4, §5

[3] = test system: Chaetomium globosum (ATCC 6205); experiment: Antifungal activity, agar plate growth inhibition; type: cell-based; conditions: 14 days
Method: as §3, §4, §5

[4] = test system: Fusarium moniliforme (ATCC 10052); experiment: Antifungal activity, agar plate growth inhibition; type: cell-based; conditions: 14 days
Method: as §3, §4, §5

[5] = test system: Trichoderma viride (ATCC 8678); experiment: Antifungal activity, agar plate growth inhibition; type: cell-based; conditions: 14 days
Method: as §3, §4, §5

[6] = test system: Aspergillus niger (ATCC 12845); experiment: Antifungal activity, agar plate growth inhibition; type: cell-based; conditions: 14 days
Method: as §3, §4, §5

[7] = test system: Penicillium notatum (ATCC 9179); experiment: Antifungal activity, agar plate growth inhibition; type: cell-based; conditions: 14 days
Method: as §3, §4, §5

[8] = test system: Saccharomyces cerevisiae (ATCC 9896); experiment: Antifungal activity, agar plate growth inhibition; type: cell-based; conditions: 14 days
Method: as §3, §4, §5

[9] = test system: Trichophyton mentagrophytes (ATCC 9129); experiment: Antifungal activity, agar plate growth inhibition; type: cell-based; conditions: 14 days
Method: as §3, §4, §5

Escherichia coli = experiment: Antibacterial activity, agar growth inhibition; type: cell-based; conditions: for growth inhibition: Gram-negative, 24 hours at 37° C.
Method: The agar was also needed with a 1:100 dilution of an 18-hour old culture of the desired bacterial species in sterile distilled water. The plates were incubated for 24 hours at 37° C. with each bacterial strain. Observations of bacterial growth inhibition were made following the appropriate incubation period.
as §1
These compounds were tested for antibacterial activity in the same manner as the triorganotin 5-nitro-2-furoates of the present invention.
as §2

[10] = test system: Cladosporium carpophilium (ATCC 12117); experiment: Antifungal activity, agar plate growth inhibition; type: cell-based, Cladosporium carpophilum; conditions: 14 days
Method: as §3, §4, §5

Row | Compound | growth inhibition ([1]; 1 μg/ml) | growth inhibition ([1]; 10 μg/ml) | growth inhibition ([1]; 100 μg/ml) | growth inhibition ([2]; 1 μg/ml) | growth inhibition ([2]; 10 μg/ml) | growth inhibition ([2]; 100 μg/ml) | growth inhibition ([3]; 1 μg/ml) | growth inhibition ([3]; 10 μg/ml) | growth inhibition ([3]; 100 μg/ml) | growth inhibition ([4]; 1 μg/ml) | growth inhibition ([4]; 10 μg/ml) | growth inhibition ([4]; 100 μg/ml) | growth inhibition ([5]; 1 μg/ml) | growth inhibition ([5]; 10 μg/ml) | growth inhibition ([5]; 100 μg/ml) | growth inhibition ([6]; 1 μg/ml) | growth inhibition ([6]; 10 μg/ml) | growth inhibition ([6]; 100 μg/ml) | growth inhibition ([7]; 1 μg/ml) | growth inhibition ([7]; 10 μg/ml) | other results
1 | N#CN=C(Nc1ccccc1)[O][Sn]([c]1ccccc1)([c]1ccccc1)[c]1ccccc1 [Comparative Compound 3, N--phenyl, N'--cyano-O--(triphenylstannyl)-isourea, reference compound] | + | + | + | - | + | + | - | + | + | - | + | + | - | - | + | - | + | + | - | + | minimum concentration for complete growth inhibition (Staphylococcus aureus): 100 µg/mL; growth inhibition (Staphylococcus aureus; 1 μg/ml, 24 hours at 37° C.): -; growth inhibition ([7]; 100 μg/ml): +; growth inhibition ([8]; 1 μg/ml): -; growth inhibition ([8]; 10 μg/ml): -; growth inhibition ([8]; 100 μg/ml): 2+; growth inhibition ([9]; 1 μg/ml): +; growth inhibition ([9]; 10 μg/ml): +; growth inhibition ([9]; 100 μg/ml): 2+; growth inhibition (in words) (Escherichia coli; 100 μg/ml): inactive; growth inhibition (Escherichia coli; 1 μg/ml): -; growth inhibition (Escherichia coli; 10 μg/ml): -; growth inhibition (Escherichia coli; 100 μg/ml): -; growth inhibition ([10]; 1 μg/ml): -; growth inhibition ([10]; 10 μg/ml): +; growth inhibition ([10]; 100 μg/ml): +
2 | N#CN=C(Nc1ccccc1)[S][Sn]([c]1ccccc1)([c]1ccccc1)[c]1ccccc1 [compound 2, N--phenyl, N'--cyano-S--(triphenylstannyl)-isothiourea, reference compound] | - | + | + | - | + | 2+ | - | + | + | - | + | + | - | - | + | - | + | 2+ | - | + | growth inhibition ([7]; 100 μg/ml): +; growth inhibition ([8]; 1 μg/ml): -; growth inhibition ([8]; 10 μg/ml): -; growth inhibition ([8]; 100 μg/ml): -; growth inhibition ([9]; 1 μg/ml): -; growth inhibition ([9]; 10 μg/ml): +; growth inhibition ([9]; 100 μg/ml): +; growth inhibition (in words) (Escherichia coli; 100 μg/ml): partially; growth inhibition (Escherichia coli; 1 μg/ml): -; growth inhibition (Escherichia coli; 10 μg/ml): -; growth inhibition ([10]; 1 μg/ml): -; growth inhibition ([10]; 10 μg/ml): -; growth inhibition ([10]; 100 μg/ml): -
3 | N--nitrophenyl, N--(triphenylstannyl) cyanamide [compound 1, reference compound] | + | + | + | + | + | + | + | + | 2+ | + | + | + | - | + | + | + | + | + | + | + | growth inhibition ([7]; 100 μg/ml): +; growth inhibition ([8]; 1 μg/ml): -; growth inhibition ([8]; 10 μg/ml): -; growth inhibition ([8]; 100 μg/ml): +; growth inhibition ([9]; 1 μg/ml): +; growth inhibition ([9]; 10 μg/ml): +; growth inhibition ([9]; 100 μg/ml): 2+; growth inhibition ([10]; 1 μg/ml): +; growth inhibition ([10]; 10 μg/ml): +; growth inhibition ([10]; 100 μg/ml): +
